# Measurements as given in patent US5635479A, “Treatment of gynecological malignancies with biologically active peptides” (Magainin Pharmaceuticals Inc., priority 1995, dated 1997).
# Square brackets hold non-standard residues; d marks the D form. Ends that are not written are not given here. Peptide text beside a SMILES is read from it. * marks the point of attachment. Octanoyl = CCCCCCCC(=O)*
# Test system: murine Spontaneous Ovarian Teratoma cells (SOT cells)
# Assay: Survival and ascites accumulation of mice injected with Spontaneous Ovarian Teratoma cells
# Format: in vivo
# Settings: for ILS / Median Survival Time: Table I, i.p. days 2 and 5 after SOT cells; for delay of accumulation of ascites fluid (body weight data): Example 1, FIG. 1, untreated mice began to accumulate fluid 5 to 7 days after implantation; for increase in lifespan: Example 1, FIG. 2, median day of death as endpoint; for accumulation of ascites fluid (body weight data) vs control group: Example 3, FIG. 4, peptides 20 mg/kg at 2 days, or 2 and 5 days, adriamycin 5 mg/kg on day 2 only; for survival time and survivors vs control group: Example 3, FIG. 3, 20 mg/kg at 2 days, or at 2 days and 5 days after SOT cells
# Experimental: Groups of mice, with six mice in each group, were injected with murine Spontaneous Ovarian Teratoma cells (SOT cells). At day 2, or at day 2 and day 5 after injection, the mice were injected with a saline solution, 5 mg/kg adriamycin (day 2 only), with 22 mg/kg of a peptide having the structure (SEQ ID NO:115)-NH2, or, in which each amino acid residue of (SEQ ID NO:115)-NH2 is a D-amino acid residue, such peptide hereinafter referred to as D-(SEQ ID NO:115)-NH2 or with 130 mg/kg of Cecropin A (SEQ ID NO:116)-NH2. The animals were monitored for survival time, the number of survivors in each group, the increase in lifespan, and the increase in body weight.
# The treatment with adriamycin increased the lifespan by 76%.
# Groups of mice, with 5 or 6 mice in each group, were injected with Spontaneous Ovarian Teratoma Cells. At 2 days and 5 days after the injection of the Spontaneous Ovarian Teratoma Cells (SOT cells), the groups of mice were injected intraperitoneally with a control saline solution, adriamycin, or with one of the following peptides:
# The mice in each group were then monitored for median survival time (in days) and for increase in life span (ILS) vis a vis the control group. The median survival time is the day of death of the third mouse in each group. The results for the groups of mice given intraperitoneal injections of peptide at days 2 and 5 following injection of SOT cells are given in Table I below.
# Groups of mice, with 6 mice in each group, were injected with Spontaneous Ovarian Teratoma Cells as described in Example 2. At 2 days, or at 2 days and 5 days after the injection of the SOT cells, the groups of mice were injected with saline (control), adriamycin (5 mg/kg-on day 2 only), or with 20 mg/kg of (SEQ ID NO:115)-NH2 or D-(SEQ ID NO:115)-NH2. The mice were then monitored for survival time, as well as for body weight.
# [1] = 22 mg/kg D-(SEQ ID NO:115)-NH2, 130 mg/kg (SEQ ID NO:116)-NH2, 5 mg/kg adriamycin
# [2] = administered on day 2 only, 22 mg/kg D-(SEQ ID NO:115)-NH2, 130 mg/kg (SEQ ID NO:116)-NH2, 5 mg/kg adriamycin
# [3] = administered on day 2 and day 5, 22 mg/kg D-(SEQ ID NO:115)-NH2, 130 mg/kg (SEQ ID NO:116)-NH2
# [4] = dose 130 mg/kg/day, control value not given
molecule,measurement,setting,value
CCCCCCCC(=O)N[C@@H](CCCCN)C(=O)N[C@H](C(=O)N[C@@H](C)C(=O)NCC(=O)N[C@@H](CCCCN)C(=O)N[C@H](C(=O)N[C@@H](C)C(=O)N[C@@H](CCCCN)C(=O)N[C@H](C(=O)N[C@@H](C)C(=O)NCC(=O)N[C@@H](CCCCN)C(=O)N[C@H](C(=O)N[C@@H](C)C(=O)N[C@@H](CCCCN)C(=O)N[C@H](C(=O)N[C@@H](C)C(=O)NCC(=O)N[C@@H](CCCCN)C(=O)N[C@H](C(=O)N[C@@H](C)C(N)=O)[C@@H](C)CC)[C@@H](C)CC)[C@@H](C)CC)[C@@H](C)CC)[C@@H](C)CC)[C@@H](C)CC [Oct-(SEQ ID NO:27)-NH2] (Octanoyl-KIAGKIAKIAGKIAKIAGKIA-NH2),ILS,"dose 20 mg/kg/day, controls 21",100%
same,Median Survival Time,"dose 20 mg/kg/day, controls 21",42 days
"COc1cccc2c1C(=O)c1c(O)c3c(c(O)c1C2=O)C[C@@](O)(C(=O)CO)C[C@@H]3O[C@H]1C[C@H](N)[C@H](O)[C@H](C)O1 [adriamycin, reference compound]",delay of accumulation of ascites fluid (body weight data),[1],at least 20 days
same,increase in lifespan,[2],76%
same,accumulation of ascites fluid (body weight data) vs control group,,delayed and was also significantly less
(SEQ ID NO:115)-NH2: peptide having the structure (SEQ ID NO:115)-NH2; sequence not printed in the text (GIGKFLKKAKKFAKAFVKIINN-NH2),survival time and survivors vs control group,,significantly greater survival times and had more survivors
same,accumulation of ascites fluid (body weight data) vs control group,,delayed and was also significantly less
same,ILS,"dose 20 mg/kg/day, controls 21",100%
same,Median Survival Time,"dose 20 mg/kg/day, controls 21",42 days
same,ILS,"dose 22 mg/kg/day, controls 21",81%
same,Median Survival Time,"dose 22 mg/kg/day, controls 21",38 days
"(SEQ ID NO:116)-NH2: Cecropin A, amide (KWKLFKKIEKVGQNIRDGIIKAGPAVAVVGQATQIAK-NH2)",delay of accumulation of ascites fluid (body weight data),[1],at least 20 days
same,increase in lifespan,[3],112%
same,increase in lifespan,[2],100%
same,ILS,[4],112%
same,Median Survival Time,[4],36 days
"(SEQ ID NO:117)-NH2: peptide of the sequence listing, amide; sequence not printed in the text (GIGKFLKSAKKFGKAFVKILNS-NH2)",ILS,"dose 45 mg/kg/day, controls 21",83%
same,Median Survival Time,"dose 45 mg/kg/day, controls 21",38 days
D-(SEQ ID NO:115)-NH2: (SEQ ID NO:115)-NH2 in which each amino acid residue is a D-amino acid residue (G[dI]G[dK][dF][dL][dK][dK][dA][dK][dK][dF][dA][dK][dA][dF][dV][dK][dI][dI][dN][dN]-NH2; N-terminus assumed; SMILES CC[C@@H](C)[C@@H](NC(=O)CN)C(=O)NCC(=O)N[C@H](CCCCN)C(=O)N[C@H](Cc1ccccc1)C(=O)N[C@H](CC(C)C)C(=O)N[C@H](CCCCN)C(=O)N[C@H](CCCCN)C(=O)N[C@H](C)C(=O)N[C@H](CCCCN)C(=O)N[C@H](CCCCN)C(=O)N[C@H](Cc1ccccc1)C(=O)N[C@H](C)C(=O)N[C@H](CCCCN)C(=O)N[C@H](C)C(=O)N[C@H](Cc1ccccc1)C(=O)N[C@@H](C(=O)N[C@H](CCCCN)C(=O)N[C@@H](C(=O)N[C@@H](C(=O)N[C@H](CC(N)=O)C(=O)N[C@H](CC(N)=O)C(N)=O)[C@H](C)CC)[C@H](C)CC)C(C)C),delay of accumulation of ascites fluid (body weight data),[1],at least 20 days
same,increase in lifespan,[3],144%
same,increase in lifespan,[2],115%
same,survival time and survivors vs control group,,significantly greater survival times and had more survivors
same,accumulation of ascites fluid (body weight data) vs control group,,delayed and was also significantly less
same,ILS,"dose 22 mg/kg/day, controls 17",144%
same,Median Survival Time,"dose 22 mg/kg/day, controls 17",41.5 days
same,ILS,"dose 22 mg/kg/day, controls 21",52%
same,Median Survival Time,"dose 22 mg/kg/day, controls 21",32 days
D-(SEQ ID NO:117)-NH2: D-form of (SEQ ID NO:117)-NH2 (G[dI]G[dK][dF][dL][dK][dS][dA][dK][dK][dF]G[dK][dA][dF][dV][dK][dI][dL][dN][dS]-NH2; N-terminus assumed; SMILES CC[C@@H](C)[C@@H](NC(=O)CN)C(=O)NCC(=O)N[C@H](CCCCN)C(=O)N[C@H](Cc1ccccc1)C(=O)N[C@H](CC(C)C)C(=O)N[C@H](CCCCN)C(=O)N[C@H](CO)C(=O)N[C@H](C)C(=O)N[C@H](CCCCN)C(=O)N[C@H](CCCCN)C(=O)N[C@H](Cc1ccccc1)C(=O)NCC(=O)N[C@H](CCCCN)C(=O)N[C@H](C)C(=O)N[C@H](Cc1ccccc1)C(=O)N[C@@H](C(=O)N[C@H](CCCCN)C(=O)N[C@@H](C(=O)N[C@H](CC(C)C)C(=O)N[C@H](CC(N)=O)C(=O)N[C@H](CO)C(N)=O)[C@H](C)CC)C(C)C),ILS,"dose 15 mg/kg/day, controls 21",67%
same,Median Survival Time,"dose 15 mg/kg/day, controls 21",35 days
